In ChEMBL document CHEMBL4152208, “Synthesis and structure-activity relationships of quinolinone and quinoline-based P2X7 receptor antagonists and their anti-sphere formation activities in glioblastoma cells” (Eur J Med Chem, 2018):
Values belong to the compound of their own block, whether it stands above or below them. Activity calls are given as the source filed them. No cut-off for these calls is given here.

Experiments:
P2X purinoceptor 7 [1] = target: T1, P2X purinoceptor 7 (Homo sapiens, UniProt Q99572); experiment: Antagonist activity at human P2X7 receptor expressed in HEK293 cells assessed as inhibition of BzATP-induced EtBr uptake after 2 hrs by fluorescence assay relative to control; format: cell-based
T1 sequence (Q99572 whole entry): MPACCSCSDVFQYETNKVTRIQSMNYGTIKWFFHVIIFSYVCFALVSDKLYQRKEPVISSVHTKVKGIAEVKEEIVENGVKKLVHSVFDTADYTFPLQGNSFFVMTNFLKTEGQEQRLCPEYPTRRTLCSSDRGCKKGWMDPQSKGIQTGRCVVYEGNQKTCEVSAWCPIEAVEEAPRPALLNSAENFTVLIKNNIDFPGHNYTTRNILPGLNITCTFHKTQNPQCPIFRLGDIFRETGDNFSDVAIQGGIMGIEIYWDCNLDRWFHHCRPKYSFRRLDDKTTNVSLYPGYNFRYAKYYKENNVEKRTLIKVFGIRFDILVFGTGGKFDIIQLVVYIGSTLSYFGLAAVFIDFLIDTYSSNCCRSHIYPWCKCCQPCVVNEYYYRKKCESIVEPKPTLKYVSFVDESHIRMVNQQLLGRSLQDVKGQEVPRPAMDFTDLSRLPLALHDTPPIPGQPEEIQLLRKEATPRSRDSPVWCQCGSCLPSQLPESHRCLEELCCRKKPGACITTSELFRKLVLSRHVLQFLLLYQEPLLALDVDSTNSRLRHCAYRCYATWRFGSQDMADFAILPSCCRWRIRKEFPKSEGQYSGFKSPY

[2] = target: T2, P2X purinoceptor 7 (Homo sapiens) (UniProt Q99572); experiment: Antagonist activity at P2X7 in LPS/IFN gamma differentiated human THP-1 cells assessed as inhibition of BzATP-induced IL-1beta release at 10 uM preincubated for 30 mins followed by BzATP stimulation for 30 mins by ELISA; format: cell-based
T2 sequence (whole entry): T1 sequence (Q99572 whole entry)

[3] = target: T2, P2X purinoceptor 7 (Homo sapiens); experiment: Antagonist activity at human P2X7 receptor expressed in HEK293 cells assessed as inhibition of BzATP-induced EtBr uptake at 1 uM after 2 hrs by fluorescence assay relative to control; format: cell-based
[4] = target: T2, P2X purinoceptor 7 (Homo sapiens); experiment: Antagonist activity at P2X7 in LPS/IFN gamma differentiated human THP-1 cells assessed as inhibition of BzATP-induced IL-1beta release at 1 uM preincubated for 30 mins followed by BzATP stimulation for 30 mins by ELISA; format: cell-based
[5] = target: T2, P2X purinoceptor 7 (Homo sapiens); experiment: Antagonist activity at human P2X7 receptor expressed in HEK293 cells assessed as inhibition of BzATP-induced EtBr uptake at 10 uM after 2 hrs by fluorescence assay relative to control; format: cell-based
Homo sapiens [6] = species: Homo sapiens; experiment: Antiproliferative activity against human TS15-88 cells at 50 uM after 24 hrs by MTS assay; format: functional, cell-based
P2X purinoceptor 7 [7] = target: T1, P2X purinoceptor 7; experiment: Antagonist activity at P2X7 in LPS/IFN gamma differentiated human THP-1 cells assessed as inhibition of BzATP-induced IL-1beta release preincubated for 30 mins followed by BzATP stimulation for 30 mins by ELISA; format: cell-based
[8] = Inhibition of neurosphere formation in human TS15-88 cells assessed as decrease in sphere size at 50 uM after 5 days by microscopic analysis relative to control; format: functional; conditions: 120 h
Homo sapiens [9] = species: Homo sapiens; experiment: Antiproliferative activity against human TS15-88 cells at 50 uM after 72 hrs by MTS assay; format: functional, cell-based
[10] = target: T3, P2X purinoceptor 2 (Homo sapiens) (UniProt Q9UBL9); experiment: Antagonist activity at human P2X2 receptor expressed in 1321N1 cells assessed as inhibition of ATP-induced calcium flux at 1 uM measured for 30 secs at 0.4 secs intervals by Flou-4-AM dye based fluorescence assay relative to control; format: cell-based
T3 sequence (whole entry): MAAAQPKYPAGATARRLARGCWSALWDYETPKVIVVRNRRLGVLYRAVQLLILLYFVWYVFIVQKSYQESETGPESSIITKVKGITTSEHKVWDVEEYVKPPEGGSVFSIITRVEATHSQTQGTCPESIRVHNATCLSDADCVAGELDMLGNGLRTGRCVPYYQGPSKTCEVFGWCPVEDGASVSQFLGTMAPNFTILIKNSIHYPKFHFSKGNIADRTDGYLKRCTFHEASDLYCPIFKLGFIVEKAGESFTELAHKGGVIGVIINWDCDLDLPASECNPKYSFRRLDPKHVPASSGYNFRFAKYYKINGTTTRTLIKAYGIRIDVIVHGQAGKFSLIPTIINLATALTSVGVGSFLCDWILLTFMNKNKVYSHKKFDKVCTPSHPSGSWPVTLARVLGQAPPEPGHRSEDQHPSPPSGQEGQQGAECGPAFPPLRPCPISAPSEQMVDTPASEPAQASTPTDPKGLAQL

P2X purinoceptor 3 = target: T4, P2X purinoceptor 3 (Homo sapiens, UniProt P56373); experiment: Antagonist activity at human P2X3 receptor expressed in 1321N1 cells assessed as inhibition of ATP-induced calcium flux measured for 30 secs at 0.4 secs intervals by Flou-4-AM dye based fluorescence assay; format: cell-based; conditions: read-out: IC50
T4 sequence (P56373 whole entry): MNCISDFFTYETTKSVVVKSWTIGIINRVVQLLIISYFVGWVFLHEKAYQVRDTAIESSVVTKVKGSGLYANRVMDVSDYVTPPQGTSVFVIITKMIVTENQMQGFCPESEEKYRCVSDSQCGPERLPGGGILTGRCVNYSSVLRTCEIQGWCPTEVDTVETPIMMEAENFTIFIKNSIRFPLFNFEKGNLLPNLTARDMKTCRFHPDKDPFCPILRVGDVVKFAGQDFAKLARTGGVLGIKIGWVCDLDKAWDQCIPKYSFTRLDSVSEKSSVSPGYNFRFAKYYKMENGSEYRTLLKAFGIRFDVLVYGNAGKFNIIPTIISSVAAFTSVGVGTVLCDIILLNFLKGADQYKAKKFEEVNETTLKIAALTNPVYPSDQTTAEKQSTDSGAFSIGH

[11] = target: T5, P2X purinoceptor 4 (Homo sapiens) (UniProt Q99571); experiment: Antagonist activity at human P2X4 receptor expressed in 1321N1 cells assessed as inhibition of ATP-induced calcium flux at 1 uM measured for 30 secs at 0.4 secs intervals by Flou-4-AM dye based fluorescence assay relative to control; format: cell-based
T5 sequence (whole entry): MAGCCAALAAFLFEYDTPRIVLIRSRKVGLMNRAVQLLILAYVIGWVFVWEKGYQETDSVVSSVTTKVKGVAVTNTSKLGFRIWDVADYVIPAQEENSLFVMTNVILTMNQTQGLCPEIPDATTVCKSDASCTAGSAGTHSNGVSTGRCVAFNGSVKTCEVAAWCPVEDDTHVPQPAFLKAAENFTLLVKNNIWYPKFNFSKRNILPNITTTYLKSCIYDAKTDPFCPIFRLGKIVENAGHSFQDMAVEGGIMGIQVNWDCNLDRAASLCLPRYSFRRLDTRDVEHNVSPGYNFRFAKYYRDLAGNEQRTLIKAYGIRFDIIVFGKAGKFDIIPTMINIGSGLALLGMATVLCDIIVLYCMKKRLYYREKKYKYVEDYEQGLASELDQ

[12] = target: T6, P2X purinoceptor 1 (Homo sapiens) (UniProt P51575); experiment: Antagonist activity at human P2X1 receptor expressed in 1321N1 cells assessed as inhibition of ATP-induced calcium flux at 1 uM measured for 30 secs at 0.4 secs intervals by Flou-4-AM dye based fluorescence assay relative to control; format: cell-based
T6 sequence (whole entry): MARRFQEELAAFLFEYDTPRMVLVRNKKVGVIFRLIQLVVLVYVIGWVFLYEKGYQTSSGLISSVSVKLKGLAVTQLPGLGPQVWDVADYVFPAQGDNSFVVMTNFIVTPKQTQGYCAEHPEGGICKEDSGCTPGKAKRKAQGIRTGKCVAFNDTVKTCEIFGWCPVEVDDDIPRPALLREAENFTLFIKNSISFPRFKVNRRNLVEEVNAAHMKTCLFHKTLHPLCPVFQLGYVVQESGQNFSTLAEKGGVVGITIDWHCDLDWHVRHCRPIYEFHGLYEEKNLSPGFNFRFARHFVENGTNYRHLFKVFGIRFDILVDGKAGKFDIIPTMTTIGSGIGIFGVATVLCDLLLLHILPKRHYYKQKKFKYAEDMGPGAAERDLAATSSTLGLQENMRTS

[13] = Cytotoxicity against HEK293 cells expressing human P2X7 receptor assessed as cell survival at 10 uM by MTT assay relative to control; format: cell-based; conditions: read-out: Survival
[14] = Metabolic stability in mouse liver microsomes assessed as parent compound remaining at 1 uM up to 30 mins in presence of NADPH by LC-MS/MS analysis; format: ADME, microsome; conditions: read-out: Stability
[15] = Kinetic solubility of the compound in PAMPA buffer at 50 uM by nepheolometry method; format: physicochemical
[16] = Metabolic stability in human liver microsomes assessed as parent compound remaining at 1 uM up to 30 mins in presence of NADPH by LC-MS/MS analysis; format: ADME, microsome; conditions: read-out: Stability
[17] = Metabolic stability in rat liver microsomes assessed as parent compound remaining at 1 uM up to 30 mins in presence of NADPH by LC-MS/MS analysis; format: ADME, microsome; conditions: read-out: Stability
[18] = Kinetic solubility of the compound in PAMPA buffer at 12.5 uM by nepheolometry method; format: physicochemical
[19] = Effective permeability of the compound at 50 uM after 4 hrs by BBB-PAMPA method; format: ADME; conditions: read-out: Peff
[20] = Kinetic solubility of the compound in PAMPA buffer at 25 uM by nepheolometry method; format: physicochemical
[21] = Antiproliferative activity against human TS15-88 cells after 24 to 72 hrs by MTS assay; format: functional, cell-based

- IC50 (P2X purinoceptor 7 [1]): 888 nM
- inhibition [2]: 35%
- inhibition [3]: 66%
- inhibition [4]: 12%
- inhibition [5]: 86%
Compound: COC(=O)c1cc2c(NC(=O)C34CC5CC(CC(C5)C3)C4)cccc2n(Cc2ccc(F)cc2)c1=O

Compound: COc1ccc(-c2ccc3c(NC(=O)CC45CC6CC(CC(C6)C4)C5)cccc3n2)cc1
- Activity (Homo sapiens [6]): inactive
- IC50 (P2X purinoceptor 7 [7]): 29 nM
- inhibition at 50 µM [8]: > 50%
- Activity (Homo sapiens [9]): Active
- IC50 (P2X purinoceptor 7 [1]): 18 nM
- inhibition [10]: 3%
- IC50 (P2X purinoceptor 3): 3 µM
- inhibition [3]: 89%
- inhibition [11]: 17%
- inhibition [12]: 25%
- inhibition [5]: 97%
- viability at 10 µM [13]: 90%

Compound: O=C(CC12CC3CC(CC(C3)C1)C2)Nc1cccc2nc(-c3ccc(CO)cc3)ccc12
- Activity (Homo sapiens [6]): Active
- remaining at 0.5 h, 1 µM [14]: 17%
- Kinetic_solubility [15]: Soluble
- remaining at 0.5 h, 1 µM [16]: 17.9%
- IC50 (P2X purinoceptor 7 [7]): 12 nM
- inhibition at 50 µM [8]: > 50%
- remaining at 0.5 h, 1 µM [17]: 11.2%
- Kinetic_solubility [18]: Soluble
- Papp at 4 h, 50 µM [19]: 17.7 ×10⁻⁶ cm/s
- Activity (Homo sapiens [9]): Active
- IC50 (P2X purinoceptor 7 [1]): 3 nM
- inhibition [3]: 95%
- Kinetic_solubility [20]: Soluble
- inhibition [5]: 98%
- viability at 10 µM [13]: 95%

Compound: COC(=O)c1ccc(-c2ccc3c(NC(=O)CC45CC6CC(CC(C6)C4)C5)cccc3n2)cc1
- Activity (Homo sapiens [6]): Active
- IC50 (P2X purinoceptor 7 [7]): 33 nM
- IC50 [21]: 35.6 µM
- inhibition at 50 µM [8]: > 50%
- Activity (Homo sapiens [9]): Active
- IC50 (P2X purinoceptor 7 [1]): 7 nM
- inhibition [3]: 90%
- inhibition [5]: 95%
- viability at 10 µM [13]: 97%

- IC50 (P2X purinoceptor 7 [1]): 62 nM
- inhibition [2]: 44%
- inhibition [3]: 86%
- inhibition [4]: 7%
- inhibition [5]: 88%
Compound: CCOC(=O)c1cc2c(NC(=O)C34CC5CC(CC(C5)C3)C4)cccc2n(Cc2ccc(OC)cc2)c1=O

Compound: Nc1ccc(-c2ccc3c(NC(=O)CC45CC6CC(CC(C6)C4)C5)cccc3n2)cc1
- Activity (Homo sapiens [6]): Active
- remaining at 0.5 h, 1 µM [14]: 13.3%
- Kinetic_solubility [15]: Soluble
- remaining at 0.5 h, 1 µM [16]: 15.5%
- IC50 (P2X purinoceptor 7 [7]): 19 nM
- inhibition at 50 µM [8]: > 50%
- remaining at 0.5 h, 1 µM [17]: 10.6%
- Kinetic_solubility [18]: Soluble
- Papp at 4 h, 50 µM [19]: 24.9 ×10⁻⁶ cm/s
- Activity (Homo sapiens [9]): Active
- IC50 (P2X purinoceptor 7 [1]): 10 nM
- inhibition [3]: 85%
- Kinetic_solubility [20]: Soluble
- inhibition [5]: 93%
- viability at 10 µM [13]: 98%

Compound: O=C(CC12CC3CC(CC(C3)C1)C2)Nc1cccc2nc(-c3ccc(O)cc3)ccc12
- Activity (Homo sapiens [6]): Active
- remaining at 0.5 h, 1 µM [14]: 14.5%
- Kinetic_solubility [15]: Soluble
- remaining at 0.5 h, 1 µM [16]: 21.5%
- IC50 (P2X purinoceptor 7 [7]): 6 nM
- IC50 [21]: 25.6 µM
- inhibition at 50 µM [8]: > 50%
- remaining at 0.5 h, 1 µM [17]: 12.9%
- Kinetic_solubility [18]: Soluble
- Papp at 4 h, 50 µM [19]: 16.4 ×10⁻⁶ cm/s
- Activity (Homo sapiens [9]): Active
- IC50 (P2X purinoceptor 7 [1]): 8 nM
- inhibition [3]: 79%
- Kinetic_solubility [20]: Soluble
- inhibition [5]: 95%
- viability at 10 µM [13]: 94%
